For 21 compounds, T/C results are on record in PubChem BioAssay AID248 (DTP/NCI, 2004).

Structures are written as SMILES. Values joined by “and” are separate entries in the source; they are usually repeats but may differ in a detail not shown here. Identical values can stand only once. Toxic doses and inconclusive results are not listed.

The test system of the assay is L1210 leukemia ip in BDF1 mice, survival T/C. The assay is described as follows: NCI In Vivo Anticancer Drug Screen. Data for tumor model L1210 Leukemia (intraperitoneal) in B6D2F1 (BDF1) mice. Conditions: endpoint: mean survival time, higher = longer survival. The essentials: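 Tumor cells were implanted, animals were treated, and survival was followed. The result divides the treated measurement by the vehicle-control measurement.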

The mark [1] stands for this setting: dose: 100.0 mg/kg/injection, schedule: Q04DX003 (ip), vehicle: Klucel (hydroxypropylcellulose) (HPC).
Setting [2] is: dose: 200.0 mg/kg/injection, schedule: Q04DX003 (ip), vehicle: Klucel (hydroxypropylcellulose) (HPC).
Setting [3] is: dose: 400.0 mg/kg/injection, schedule: Q04DX003 (ip), vehicle: Klucel (hydroxypropylcellulose) (HPC).
Where [4] appears, read: dose: 100.0 mg/kg/injection, schedule: Q01DX001 (ip), vehicle: saline.
Where [5] appears, read: dose: 200.0 mg/kg/injection, schedule: Q01DX001 (ip), vehicle: saline.
Where [6] appears, read: dose: 400.0 mg/kg/injection, schedule: Q01DX001 (ip), vehicle: saline.
Where [7] appears, read: dose: 50.0 mg/kg/injection, schedule: Q01DX009 (ip), vehicle: saline with Tween-80.
The mark [8] stands for this setting: dose: 100.0 mg/kg/injection, schedule: Q01DX009 (ip), vehicle: saline with Tween-80.
Setting [9] is: dose: 200.0 mg/kg/injection, schedule: Q01DX009 (ip), vehicle: saline with Tween-80.
[10] abbreviates: dose: 100.0 mg/kg/injection, schedule: Q04DX003 (ip), vehicle: saline.
The mark [11] stands for this setting: dose: 100.0 mg/kg/injection, schedule: Q04DX003 (ip), vehicle: saline with Tween-80.
Where [12] appears, read: dose: 200.0 mg/kg/injection, schedule: Q04DX003 (ip), vehicle: saline with Tween-80.
[13] abbreviates: dose: 400.0 mg/kg/injection, schedule: Q01DX009 (ip), vehicle: saline with Tween-80.
[14] abbreviates: dose: 400.0 mg/kg/injection, schedule: Q04DX003 (ip), vehicle: saline with Tween-80.
The mark [15] stands for this setting: dose: 50.0 mg/kg/injection, schedule: Q01DX009 (ip), vehicle: saline.
Where [16] appears, read: dose: 100.0 mg/kg/injection, schedule: Q01DX009 (ip), vehicle: saline.
The mark [17] stands for this setting: dose: 200.0 mg/kg/injection, schedule: Q01DX009 (ip), vehicle: saline.
The mark [18] stands for this setting: dose: 400.0 mg/kg/injection, schedule: Q01DX009 (ip), vehicle: saline.

For the compound `CC1(C)N=C(N)N=C(N)N1c1ccc(OCC(=O)Nc2ccccc2)c(Cl)c1`, the T/C is 102 % of control (dose: 100.0 mg/kg/injection, schedule: Q01DX009 (ip), vehicle: Klucel (hydroxypropylcellulose) (HPC)); 97 % of control under setting [1]; 94 % of control (dose: 200.0 mg/kg/injection, schedule: Q01DX009 (ip), vehicle: Klucel (hydroxypropylcellulose) (HPC)); 90 % of control under setting [2]; 93 % of control (dose: 400.0 mg/kg/injection, schedule: Q01DX009 (ip), vehicle: Klucel (hydroxypropylcellulose) (HPC)); 92 % of control under setting [3].
Consider `O=C1Nc2ccccc2C1=NC1CCCC1`, for which the T/C under setting [4] is 93 % of control, the T/C under setting [5] is 98 % of control and the T/C under setting [6] was 97 % of control.
For the compound `O=C(N/N=C/c1ccccc1O)c1ccc(Cl)cc1`, the T/C reads like this: under setting [7], 93 % of control; under setting [8], 93 % of control; under setting [9], 93 % of control.
For the compound `CN(C)CC1CCCCN1` (configuration not stated), the T/C is 93 % of control under setting [10] and 97 % of control (dose: 200.0 mg/kg/injection, schedule: Q04DX003 (ip), vehicle: saline).
For `CCN(CC)c1ccc(NC(=O)Nc2ccccc2OC)cc1`, the T/C is 103 % of control under setting [7]; 93 % of control and 101 % of control under setting [8]; 103 % of control under setting [11]; 101 % of control under setting [9]; 97 % of control under setting [12]; 95 % of control under setting [13]. Further, the T/C under setting [14] was 96 % of control.
Consider `COC1OC(COS(C)(=O)=O)C(OS(C)(=O)=O)C(OS(C)(=O)=O)C1OS(C)(=O)=O` (configuration not stated), for which the T/C was 91 % of control and 100 % of control under setting [11]; 93 % of control and 91 % of control under setting [12]; 88 % of control and 94 % of control under setting [14].
Consider `O=C(O)COc1ccc(Cl)cc1C(=O)O`, for which the T/C was 96 % of control under setting [1], 104 % of control under setting [2] and 101 % of control under setting [3].
For `O=C(O)C(Cc1ccccc1)Cc1ccccc1`, the T/C is, setting by setting: under setting [4], 97 % of control; under setting [5], 103 % of control; under setting [6], 109 % of control.
As to `NCCCc1nc(N)nc(N)c1-c1ccc(Cl)cc1`, the T/C is, setting by setting: (dose: 25.0 mg/kg/injection, schedule: Q04DX003 (ip), vehicle: saline) 104 % of control; (dose: 50.0 mg/kg/injection, schedule: Q04DX003 (ip), vehicle: saline) 110 % of control; under setting [10], 103 % of control.
For the compound `NC(=S)N/N=C/c1ccc(F)cn1`, the T/C (dose: 1.56 mg/kg/injection, schedule: Q01DX009 (ip), vehicle: saline with Tween-80) is 99 % of control; the T/C (dose: 3.13 mg/kg/injection, schedule: Q01DX009 (ip), vehicle: saline with Tween-80) was 106 % of control and 115 % of control; the T/C (dose: 5.54 mg/kg/injection, schedule: Q01DX009 (ip), vehicle: saline with Tween-80) was 108 % of control; the T/C (dose: 6.25 mg/kg/injection, schedule: Q01DX009 (ip), vehicle: saline with Tween-80) is 119 % of control; the T/C (dose: 6.25 mg/kg/injection, schedule: Q04DX002 (ip), vehicle: saline with Tween-80) is 104 % of control; the T/C (dose: 8.32 mg/kg/injection, schedule: Q01DX009 (ip), vehicle: saline with Tween-80) was 114 % of control. Besides, the T/C is, setting by setting: (dose: 12.5 mg/kg/injection, schedule: Q01DX009 (ip), vehicle: saline with Tween-80) 119 % of control and 124 % of control; (dose: 12.5 mg/kg/injection, schedule: Q04DX002 (ip), vehicle: saline with Tween-80) 112 % of control; (dose: 18.8 mg/kg/injection, schedule: Q01DX009 (ip), vehicle: saline with Tween-80) 98 % of control; (dose: 22.0 mg/kg/injection, schedule: Q01DX001 (ip), vehicle: saline with Tween-80) 105 % of control; (dose: 25.0 mg/kg/injection, schedule: Q04DX002 (ip), vehicle: saline with Tween-80) 97 % of control; (dose: 33.0 mg/kg/injection, schedule: Q01DX001 (ip), vehicle: saline with Tween-80) 107 % of control.
Turning to `Cc1ccc2c(c1)P(=O)(O)c1cc(F)ccc1O2`, the T/C under setting [15] is 105 % of control, the T/C under setting [16] is 112 % of control, the T/C under setting [17] is 112 % of control and the T/C under setting [18] is 108 % of control.
Take `COc1ccc(/C=N\NC(=O)c2ccncc2)cc1OC`: the T/C (dose: 50.0 mg/kg/injection, schedule: Q04DX002 (ip), vehicle: Klucel (hydroxypropylcellulose) (HPC)) is 101 % of control; the T/C (dose: 100.0 mg/kg/injection, schedule: Q04DX002 (ip), vehicle: Klucel (hydroxypropylcellulose) (HPC)) was 106 % of control; the T/C (dose: 200.0 mg/kg/injection, schedule: Q04DX002 (ip), vehicle: Klucel (hydroxypropylcellulose) (HPC)) was 109 % of control; the T/C (dose: 400.0 mg/kg/injection, schedule: Q04DX002 (ip), vehicle: Klucel (hydroxypropylcellulose) (HPC)) is 103 % of control.
Consider `Oc1[nH]c(=S)sc1C1=c2ccccc2=NCC1`, for which the T/C was 93 % of control and 94 % of control (dose: 44.4 mg/kg/injection, schedule: Q01DX001 (ip), vehicle: carboxymethylcellulose (CMC)); 96 % of control and 106 % of control (dose: 66.7 mg/kg/injection, schedule: Q01DX001 (ip), vehicle: carboxymethylcellulose (CMC)); 98 % of control and 107 % of control (dose: 100.0 mg/kg/injection, schedule: Q01DX001 (ip), vehicle: carboxymethylcellulose (CMC)); 98 % of control and 100 % of control (dose: 150.0 mg/kg/injection, schedule: Q01DX001 (ip), vehicle: carboxymethylcellulose (CMC)).
On to `Cc1ccc(O)c(N=O)c1.[Co]`, for which the T/C is, setting by setting: (dose: 50.0 mg/kg/injection, schedule: Q01DX001 (ip), vehicle: saline) 97 % of control; under setting [4], 109 % of control; under setting [5], 115 % of control.
As to `O=C(O)CSC1=NCCN1`, the T/C was 91 % of control (dose: 25.0 mg/kg/injection, schedule: Q01DX009 (ip), vehicle: saline); 92 % of control under setting [15]; 106 % of control and 113 % of control (dose: 50.0 mg/kg/injection, schedule: Q04DX002 (ip), vehicle: saline); 90 % of control under setting [16]; 100 % of control and 113 % of control (dose: 100.0 mg/kg/injection, schedule: Q04DX002 (ip), vehicle: saline); 93 % of control under setting [17]. Moreover, the T/C is 260 % of control and 91 % of control (dose: 200.0 mg/kg/injection, schedule: Q04DX002 (ip), vehicle: saline); 91 % of control under setting [18]; 106 % of control (dose: 400.0 mg/kg/injection, schedule: Q04DX002 (ip), vehicle: saline).
On to `CC1(C)CC(=O)C=C(NCc2ccccc2)C1`, for which the T/C is 96 % of control (dose: 50.0 mg/kg/injection, schedule: Q01DX009 (ip), vehicle: acetone); 95 % of control (dose: 100.0 mg/kg/injection, schedule: Q01DX009 (ip), vehicle: acetone); 101 % of control (dose: 200.0 mg/kg/injection, schedule: Q01DX009 (ip), vehicle: acetone).
Consider `CCCCCCCNCCC#N`, for which the T/C runs as follows: (dose: 100.0 mg/kg/injection, schedule: Q01DX001 (ip), vehicle: saline with Tween-80) 95 % of control; (dose: 200.0 mg/kg/injection, schedule: Q01DX001 (ip), vehicle: saline with Tween-80) 89 % of control.
Regarding `CCCC(C)C(C(=O)O)c1ccccc1` (configuration not stated), the T/C by setting is: under setting [8], 102 % of control; under setting [11], 117 % of control; under setting [9], 104 % of control; under setting [12], 100 % of control; under setting [13], 100 % of control; under setting [14], 99 % of control.
With `O=C(C[n+]1ccccc1)c1cn(Cc2ccccc2)c2ccccc12`, the T/C by setting is: (dose: 75.0 mg/kg/injection, schedule: Q01DX001 (ip), vehicle: other) 98 % of control; (dose: 150.0 mg/kg/injection, schedule: Q01DX001 (ip), vehicle: other) 97 % of control.
Turning to `CSC(CC(=O)O)C(=O)O` (configuration not stated), the T/C was 97 % of control (dose: 75.0 mg/kg/injection, schedule: Q01DX001 (ip), vehicle: saline) and 108 % of control (dose: 150.0 mg/kg/injection, schedule: Q01DX001 (ip), vehicle: saline).
In the case of `O=c1cc(-c2ccccc2)[nH]c2ccc(S(=O)(=O)O)cc12`, the T/C reads like this: under setting [1], 93 % of control; under setting [2], 106 % of control; under setting [3], 96 % of control.
